Values joined by “and” are separate entries in the source; they are usually repeats but may differ in a detail not shown here. Identical values can stand only once. Active and inactive are the calls of the source.
Tests used:
Cytochrome P450 3A4 = Cytochrome P450 3A4 (Homo sapiens, UniProt P08684);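 note: CYP3A4 tested as one member of a cytochrome P450 panel screen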
Cytochrome P450 2C9 = Cytochrome P450 2C9 (Homo sapiens, UniProt P11712)
H9c2 = assay: cells; type: functional, cell-based; details: Rattus norvegicus, H9c2, Myocardium
Streptococcus = assay: GAS UMAA2166 growth inhibition – luminescence, BacTiterGlo, counter-screen for streptokinase expression inhibitor project, dose response (AID 1915); type: functional, organism-based;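 note: potency for reduction of bacterial viability or growth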
[1] = tested on: Streptococcus sp. 'group A'; assay: Streptococcus pyogenes SK(-)GAS viability under kanamycin – luminescence, BacTiterGlo, confirmation, counter-screen for streptokinase expression inhibitor project, dose response (AID 1900); type: functional, organism-based
Streptokinase A = target: T1, Streptokinase A (Streptococcus pyogenes serotype M1, UniProt P10520); assay: viability-normalized secreted streptokinase activity reduction – plasminogen activation absorbance, OD405, dose response (AID 1914); type: functional, Streptococcus pyogenes M1 GAS;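 note: secreted streptokinase activity via plasminogen activation per viability signal from cell pellet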
T1 sequence (P10520 whole entry): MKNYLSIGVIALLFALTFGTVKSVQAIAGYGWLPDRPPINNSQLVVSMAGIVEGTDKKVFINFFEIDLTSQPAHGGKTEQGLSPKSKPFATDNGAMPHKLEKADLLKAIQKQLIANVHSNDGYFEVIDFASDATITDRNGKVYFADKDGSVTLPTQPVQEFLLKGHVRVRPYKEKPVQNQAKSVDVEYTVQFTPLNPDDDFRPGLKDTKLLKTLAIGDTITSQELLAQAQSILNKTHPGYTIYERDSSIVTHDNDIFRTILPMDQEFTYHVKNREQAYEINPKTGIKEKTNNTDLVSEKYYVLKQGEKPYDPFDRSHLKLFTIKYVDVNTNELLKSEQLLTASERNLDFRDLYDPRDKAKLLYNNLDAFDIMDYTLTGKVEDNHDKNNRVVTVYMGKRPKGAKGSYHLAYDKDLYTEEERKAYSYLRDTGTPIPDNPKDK

Cytochrome P450 2C19 = Cytochrome P450 2C19 (Homo sapiens, UniProt P33261); assay: Cytochrome panel assay with activity outcomes. Panel member name: p450-cyp2c19 Compounds with AC50 equal or less than 10 uM are considered active; type: functional; details: read-out: AC50
[2] = target: T2, Rac GTPase-activating protein 1 (Homo sapiens, UniProt Q9H0H5); assay: blockers of MgcRacGAP-driven Rac1 GTP hydrolysis – biochemical, ADP Hunter fluorescence, primary and confirmatory, confirmation (AID 624330); type: functional
T2 sequence (Q9H0H5 whole entry): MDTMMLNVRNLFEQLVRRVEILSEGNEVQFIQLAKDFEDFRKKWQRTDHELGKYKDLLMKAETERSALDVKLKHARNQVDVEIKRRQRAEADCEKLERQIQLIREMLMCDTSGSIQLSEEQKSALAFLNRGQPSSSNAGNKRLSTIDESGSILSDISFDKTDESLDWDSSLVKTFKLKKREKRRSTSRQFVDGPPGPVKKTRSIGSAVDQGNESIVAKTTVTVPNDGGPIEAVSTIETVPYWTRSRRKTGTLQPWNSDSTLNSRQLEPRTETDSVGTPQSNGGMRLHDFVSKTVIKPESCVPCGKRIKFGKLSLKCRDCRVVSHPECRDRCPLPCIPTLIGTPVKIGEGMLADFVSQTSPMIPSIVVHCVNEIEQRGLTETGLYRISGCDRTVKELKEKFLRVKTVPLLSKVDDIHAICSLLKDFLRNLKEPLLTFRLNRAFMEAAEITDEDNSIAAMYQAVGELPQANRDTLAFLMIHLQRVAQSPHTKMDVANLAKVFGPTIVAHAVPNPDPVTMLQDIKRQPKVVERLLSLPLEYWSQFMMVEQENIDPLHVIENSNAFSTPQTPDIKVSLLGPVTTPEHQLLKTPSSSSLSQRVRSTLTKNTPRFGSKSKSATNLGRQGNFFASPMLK

INS1 = assay: INS-1E survival protection against cytokine death – cell-based, luminescence, retest, dose response (AID 449756); type: functional; details: Rattus norvegicus;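 note: cell death triggered by IL-1 beta plus TNF-alpha plus IFN-gamma mixture; protective hits raise ATP signal compared with cytokine alone wells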
[3] = target: T3, RNA-binding protein pos-1 (Caenorhabditis elegans, UniProt G5EF15); assay: disruptors of C. elegans POS-1 RNA interaction – biochemical, fluorescence polarization, dose response (AID 1964);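 note: purified POS-1 fused to maltose binding protein made in E. coli; potency of compounds blocking POS-1 binding to fluorescent RNA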
T3 sequence (G5EF15 whole entry): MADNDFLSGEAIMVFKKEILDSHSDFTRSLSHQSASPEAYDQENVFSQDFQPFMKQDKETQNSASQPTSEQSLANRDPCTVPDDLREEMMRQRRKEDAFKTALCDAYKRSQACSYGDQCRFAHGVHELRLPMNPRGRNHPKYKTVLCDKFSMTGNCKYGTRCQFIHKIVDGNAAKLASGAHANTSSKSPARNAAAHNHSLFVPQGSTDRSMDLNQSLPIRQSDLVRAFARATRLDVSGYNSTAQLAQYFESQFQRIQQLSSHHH

[4] = target: T4, Zinc finger protein mex-5 (Caenorhabditis elegans, UniProt Q9XUB2); assay: potency of MEX-5 RNA-binding blockers – biochemical, C. elegans, fluorescence polarization, dose response (AID 1960)
T4 sequence (Q9XUB2 whole entry): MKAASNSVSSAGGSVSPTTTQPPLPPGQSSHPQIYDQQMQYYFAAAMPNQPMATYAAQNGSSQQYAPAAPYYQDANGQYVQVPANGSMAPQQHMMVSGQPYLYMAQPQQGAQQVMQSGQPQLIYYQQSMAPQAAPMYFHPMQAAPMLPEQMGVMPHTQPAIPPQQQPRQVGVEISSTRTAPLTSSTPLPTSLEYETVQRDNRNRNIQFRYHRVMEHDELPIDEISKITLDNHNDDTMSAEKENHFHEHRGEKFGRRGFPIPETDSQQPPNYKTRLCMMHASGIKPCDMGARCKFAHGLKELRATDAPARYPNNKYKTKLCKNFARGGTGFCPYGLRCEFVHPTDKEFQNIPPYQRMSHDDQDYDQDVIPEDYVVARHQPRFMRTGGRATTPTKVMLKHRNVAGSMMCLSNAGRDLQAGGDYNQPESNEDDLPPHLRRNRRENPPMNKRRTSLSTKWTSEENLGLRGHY

Chain of Cytochrome P450 2C19 (P33261 whole entry): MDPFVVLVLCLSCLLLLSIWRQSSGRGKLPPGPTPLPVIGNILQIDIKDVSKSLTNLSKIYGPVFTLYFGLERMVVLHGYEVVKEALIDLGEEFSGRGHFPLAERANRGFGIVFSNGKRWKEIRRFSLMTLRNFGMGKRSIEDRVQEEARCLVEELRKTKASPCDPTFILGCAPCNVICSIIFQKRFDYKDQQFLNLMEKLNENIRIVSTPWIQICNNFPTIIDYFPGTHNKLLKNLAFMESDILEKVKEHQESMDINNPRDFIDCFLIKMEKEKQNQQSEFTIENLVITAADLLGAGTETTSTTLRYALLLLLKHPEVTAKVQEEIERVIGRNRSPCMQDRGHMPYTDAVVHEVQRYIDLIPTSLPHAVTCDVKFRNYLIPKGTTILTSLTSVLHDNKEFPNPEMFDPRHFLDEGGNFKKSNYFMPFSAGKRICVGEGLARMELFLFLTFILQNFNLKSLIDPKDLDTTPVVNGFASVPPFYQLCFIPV
Chain of Cytochrome P450 3A4 (P08684 whole entry): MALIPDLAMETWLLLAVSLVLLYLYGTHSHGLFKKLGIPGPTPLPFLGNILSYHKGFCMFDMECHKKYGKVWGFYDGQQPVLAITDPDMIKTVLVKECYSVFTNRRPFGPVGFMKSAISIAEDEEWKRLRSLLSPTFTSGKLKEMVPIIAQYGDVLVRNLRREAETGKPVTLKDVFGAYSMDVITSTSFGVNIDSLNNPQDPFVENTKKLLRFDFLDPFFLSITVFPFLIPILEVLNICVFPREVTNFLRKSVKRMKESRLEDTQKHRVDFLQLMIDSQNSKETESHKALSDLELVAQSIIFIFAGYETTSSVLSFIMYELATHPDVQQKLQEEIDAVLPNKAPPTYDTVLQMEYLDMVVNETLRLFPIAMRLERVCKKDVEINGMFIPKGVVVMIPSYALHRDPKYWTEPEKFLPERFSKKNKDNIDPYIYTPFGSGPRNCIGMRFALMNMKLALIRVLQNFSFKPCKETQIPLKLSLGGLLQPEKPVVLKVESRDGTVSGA
Chain of Cytochrome P450 2C9 (P11712 whole entry): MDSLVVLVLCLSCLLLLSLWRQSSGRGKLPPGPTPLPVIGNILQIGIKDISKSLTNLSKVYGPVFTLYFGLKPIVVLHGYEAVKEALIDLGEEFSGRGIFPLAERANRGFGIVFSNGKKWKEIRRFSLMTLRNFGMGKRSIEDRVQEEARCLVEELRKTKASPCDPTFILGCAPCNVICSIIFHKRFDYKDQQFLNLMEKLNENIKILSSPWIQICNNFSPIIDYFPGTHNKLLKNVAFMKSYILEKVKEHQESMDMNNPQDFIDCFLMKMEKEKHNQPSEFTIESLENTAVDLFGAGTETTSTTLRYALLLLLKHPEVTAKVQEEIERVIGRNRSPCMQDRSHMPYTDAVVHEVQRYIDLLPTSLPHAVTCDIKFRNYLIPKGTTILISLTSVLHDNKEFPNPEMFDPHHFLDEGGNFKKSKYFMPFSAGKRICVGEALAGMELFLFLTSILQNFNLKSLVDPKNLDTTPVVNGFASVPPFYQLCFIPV

## COC(=O)[C@H]1[C@H](c2ccccc2)C(=O)[C@@]2(O)c3ccccc3O[C@@]12c1ccccc1
Cytochrome P450 3A4
  AC50: 3.16 µM (inconclusive)
Cytochrome P450 2C9
  AC50: 6.31 µM (inconclusive)

## O=C(Nc1cccc(-c2nc3cccnc3s2)c1)c1ccco1
H9c2
  IC50: > 79 µM (inactive)

## Cc1cc(Oc2cnn(C(C)(C)C)c(=O)c2Cl)cc(C(C)C)c1
Streptococcus
  EC50: 12.6 µM (active)
[1]
  EC50: 6.31 µM (active)
Streptokinase A
  EC50: 9.54 µM (active)

## CC(=O)Nc1ccc(S(=O)(=O)NCC2CCC(C(=O)N3CCN(c4ccccn4)CC3)CC2)cc1 (stereo unspecified)
Cytochrome P450 2C9
  AC50: 3.98 µM (inconclusive)
Cytochrome P450 2C19
  AC50: 10 µM (inconclusive)

## O=C1c2ccccc2CC1(Cc1ccccc1)Cc1ccccc1
Streptococcus
  EC50: > 150 µM (not active)
[1]
  EC50: 6.04 µM (active)
Streptokinase A
  EC50: 12.9 µM (active)

## C/C(CCN1CCc2nc(-c3ccccc3)c(-c3ccccc3)cc2C1)=N\O[C@@H](C)c1cn([C@H](CO)Cc2ccccc2)nn1
Cytochrome P450 3A4
  AC50: 3.98 µM (inconclusive) and 3.16 µM (inconclusive)

## CCOc1ccc(NC(=O)c2cc3c(=O)n(C)c4ccccc4c3n2C)cc1
H9c2
  IC50: > 79 µM (inactive)

## Cc1nc2cnc(N(C)C)nc2n(CCc2ccccc2)c1=O
Cytochrome P450 3A4
  AC50: 31.6 µM (inconclusive)

## NCC[Se][Se]CCN
Cytochrome P450 2C9
  AC50: 0.316 µM (inconclusive)

## COc1cc(/C=C/C(=O)OCC(=O)NC(=O)NC(C)C)ccc1O
[2]
  IC50: 47.7 µM (active)

## O=c1cnc2cnc(Nc3ccccc3)nc2n1Cc1ccc(F)cc1
Cytochrome P450 2C9
  AC50: 7.94 µM (inconclusive)

## c1ccc2sc(NC3=NCN(C4CCCCCC4)CN3)nc2c1
Cytochrome P450 3A4
  AC50: 7.94 µM (inconclusive)
Cytochrome P450 2C9
  AC50: 39.8 µM (inconclusive)

## CC(C)CC(=O)Nc1ccc2c(c1)oc1ccccc12
Cytochrome P450 2C9
  AC50: 8.91 µM (inconclusive)
Cytochrome P450 2C19
  AC50: 2.82 µM (inconclusive)

## CCCn1nc(C(=O)OCC(=O)c2c(N)n(C)c(=O)n(C)c2=O)c2ccccc2c1=O
H9c2
  IC50: 17.1 µM (active)

## CCOC(=O)c1c(NC(C)=O)sc2c(OC)cccc12
Cytochrome P450 2C9
  AC50: 5.01 µM (inconclusive)

## COc1ccc(CC(=O)N(Cc2ccccc2)c2ccccc2)cc1S(=O)(=O)N1CCOCC1
H9c2
  IC50: 70.9 µM (inactive)

## COc1cc(OC)c(Cl)cc1N
[2]
  IC50: 35.9 µM (active)

## CC(C)CN1CC[C@@]2(CCCN(S(=O)(=O)c3ccccc3)C2)C1
Cytochrome P450 3A4
  AC50: 5.01 µM (inconclusive)

## CCCCn1cc[n+](C2=C([N-]S(=O)(=O)c3ccc(Cl)cc3)C(=O)c3ccccc3C2=O)c1
INS1
  AC50: 4.18 µM (active)

## COc1cccc(OCC(O)CN2CCN(C)CC2)c1 (stereo unspecified)
[2]
  IC50: 74.6 µM (active)

## OC(CNC1CCCCC1)COCCOc1ccc(Br)cc1 (stereo unspecified)
INS1
  AC50: 61.9 µM (active)

## O=C(CCc1nc(O)c2ccccc2n1)OCCOc1ccc(Cl)cc1
H9c2
  IC50: > 79 µM (inactive)

## Fc1ccc(CNCCc2ccccc2)cc1
[2]
  IC50: 249 µM (active)

## O=C(OCC(=O)c1cccs1)c1cccc(C(=O)OCC(=O)c2cccs2)n1
Cytochrome P450 3A4
  AC50: 35.5 µM (inconclusive)

## CCc1cc[n+](C2=Nc3ccccc3[N-]C2=C(C#N)C#N)cc1
Cytochrome P450 3A4
  AC50: 15.8 µM (inconclusive)
Cytochrome P450 2C9
  AC50: 14.1 µM (inconclusive)
Cytochrome P450 2C19
  AC50: 25.1 µM (inconclusive)

## O=C(CN1CCN(S(=O)(=O)c2cc(Cl)ccc2Cl)CC1)c1ccc(O)c(O)c1
H9c2
  IC50: > 79 µM (inactive)

## FC(F)(F)c1ccccc1-c1ccc2ncnc(N3CCOCC3)c2c1
Cytochrome P450 3A4
  AC50: 5.01 µM (inconclusive)

## CC1Cc2ccccc2N1C(=O)Cn1cc([N+](=O)[O-])cn1 (stereo unspecified)
Cytochrome P450 2C9
  AC50: 39.8 µM (inconclusive)
Cytochrome P450 2C19
  AC50: 11.2 µM (inconclusive)

## Cc1cc(-c2ccccc2)nc(O)c1S(=O)(=O)c1ccc(Cl)cc1
Cytochrome P450 2C9
  AC50: 3.55 µM (inconclusive)
Cytochrome P450 2C19
  AC50: 5.62 µM (inconclusive)

## CCc1nnc(NC(=O)c2ccc(S(=O)(=O)N(C)c3ccccc3)cc2)o1
Streptococcus
  EC50: 8.72 µM (active)
[1]
  EC50: 7.35 µM (active)
Streptokinase A
  EC50: > 150 µM (not active)

## COc1ccc2nc(O)c(CNc3ccc(C)c(C)c3)cc2c1
H9c2
  IC50: > 79 µM (inactive)

## Cc1cccc(C)c1OC(=O)C(c1ccccc1)c1ccccc1
Streptococcus
  EC50: > 150 µM (not active)
[1]
  EC50: 9.04 µM (active)
Streptokinase A
  EC50: 17 µM (active)

## CCOC(=O)c1cc(-c2nnc(-c3cc(OC)c(OC)c(OC)c3)o2)c(C)nc1C
H9c2
  IC50: > 79 µM (inactive)

## O=C(Cc1ccc(Br)cc1)OCC(=O)c1ccc2c(c1)OCCO2
Cytochrome P450 2C9
  AC50: 7.94 µM (inconclusive)

## CCn1nc(CC(C)C)cc1C(=O)N1CCCC(Nc2ccc(OC)cc2)C1 (stereo unspecified)
[2]
  IC50: 121 µM (active)

## COC(=O)c1c(NC(=O)c2ccn(C)n2)sc2c1CCC2
Streptococcus
  EC50: > 150 µM (not active)
[1]
  EC50: > 150 µM (not active)
Streptokinase A
  EC50: > 150 µM (not active)

## COc1ccc(-c2nc3cnc(N4CCN(C)CC4)nc3n(CCC#N)c2=O)cc1
Cytochrome P450 3A4
  AC50: 39.8 µM (inconclusive)

## CCOC(=O)Cc1cc(O)n2ncc(-c3cccc(Br)c3)c2n1
Streptococcus
  EC50: 18 µM (active)
[1]
  EC50: 2.14 µM (active)
Streptokinase A
  EC50: > 150 µM (not active)

## COCCn1c(=O)cnc2cnc(OCc3ccccc3)nc21
Cytochrome P450 3A4
  AC50: 20 µM (inconclusive)

## COC(=O)c1ccc(OCC(=O)Nc2ccccc2C(=O)NC2CC2)cc1
H9c2
  IC50: > 79 µM (inactive)

## CC(=O)c1cccc(NC(=O)C(C)OC(=O)CCc2nc(O)c3ccccc3n2)c1 (stereo unspecified)
H9c2
  IC50: 15.7 µM (active)

## Cc1cccc(N2C(S)=NC(=Nc3c(C)cccc3C)C23CCOC(C)(C)C3)c1 (stereo unspecified)
INS1
  AC50: 3.8 µM (active)

## O=C(CN1C(=O)C2CC=CCC2C1=O)Nc1nc(-c2ccc(F)cc2)cs1 (stereo unspecified)
H9c2
  IC50: > 79 µM (inactive)

## C=C[C@H](CC(C)C)N(Cc1ccccc1)S(=O)(=O)N(Cc1ccccc1)[C@@H](C=C)CC(C)C
INS1
  AC50: 5.4 µM (active)

## CC(C)=NNc1cnnc2ccc([N+](=O)[O-])cc12
H9c2
  IC50: 8.8 µM (active)

## COC(=O)c1[nH]c2cc(OC)c(OC)cc2c1/C=N/Nc1ccccc1
[3]
  EC50: 20 µM (active)
H9c2
  IC50: > 79 µM (inactive)
[4]
  EC50: 20.3 µM (inconclusive)

## C/C(=N/NC(=O)c1cccs1)c1cccc(NC(=O)C2CC2)c1
H9c2
  IC50: > 79 µM (inactive)

## Clc1nc2sccn2c1/C=N/n1cnc2ccccc21
H9c2
  IC50: > 79 µM (inactive)

## C/C(=N\Nc1nc2ccc(Cl)cc2o1)c1ccccc1
Streptococcus
  EC50: > 150 µM (not active)
[1]
  EC50: 6.79 µM (active)
Streptokinase A
  EC50: > 150 µM (not active)

## N[C@@H](C(=O)O)[C@H](CC(=O)O)c1ccc(Cl)cc1
Cytochrome P450 2C9
  AC50: 39.8 µM (inconclusive)
Cytochrome P450 2C19
  AC50: 25.1 µM (inconclusive)

## CN(C)c1ccccc1CN1CCCN(Cc2ccccc2N(C)C)C1c1ccncc1
Cytochrome P450 3A4
  AC50: 3.16 µM (inconclusive)
